Patent US20260055097A9, “NRF2 PROTEIN DEGRADERS” (Ganymede Oncology, Inc., priority 2022, published 2026)
Where two headings read alike, the source gives them in different places.

Legend:
Assay type in all cases: cell-based
LK-2 = experiment: Cancer cell viability, LK-2 (CellTiter-Glo); details: Homo sapiens, LK-2, 72 h, LK-2 cells, 3 days, read-out: Cellular IC50 (μM) LK-2
Description: (§1) Representative Compounds of the Disclosure were tested in A549 (Vendor: ATCC; Cat #CCL-185; Description: lung, carcinoma) and/or LK-2 (Vendor: Riken; Cat #RCB1970; Description: lung, squamous cell carcinoma) cellular viability assays according to the following general protocol. • 1. Observed the cells under microscope. • 2. Aspirated the media and added 5 mL trypsin and incubate for 3 mins. • 3. Added 10 mL fresh media and harvested all the cells in to 15 mL tubes. • 4. Centrifuged the cells at 1000 rpm for 5 mins. • 5. Re-suspended the cells with 11 mL media and took 1 mL to determine the cell number and viability. • 6. Prepared cells suspension at 20 K/mL (A549) or 35 K/mL (LK-2) • 7. Seeded the cells into 96-well plate and incubated for overnight. • 8. Added compounds into each well with a HPD300 machine (nine three-fold dilutions typically starting at 30 µM final concentration) and incubated for 3 days. • 9. After 3 days, took out the plates from the incubator and observed the cells under microscope. • 10. Passed a film at the bottom of the plates. • 11. Equilibrated the plate and its contents at room temperature for approximately 30 minutes. • 12. Thawed the CellTiter-Glo® Buffer and equilibrated to room temperature prior to use. • 13. Equilibrated the lyophilized CellTiter-Glo® Substrate to room temperature prior to use. • 14. Transferred 100 ml of CellTiter-Glo® Buffer into the amber bottle containing CellTiter-Glo® Substrate to reconstituted the lyophilized enzyme/substrate mixture. • 15. Mixed by gently vortexing, swirling or inverting the contents to obtain a homogeneous solution. • 16. Added 100 μL CellTiter-Glo® Reagent into each well • 17. Mixed contents for 15 minutes on an orbital shaker to induce cell lysis. • 18. Recorded luminescence with EnSpire machine. • 19. Passed the raw data into the file and analyzed the data with XLfit software.

A549 = experiment: Cancer cell viability, A549 (CellTiter-Glo); details: Homo sapiens, 72 h, A549 cells, 3 days, read-out: Cellular IC50 (μM) A549
Description: as §1, with “Added compounds into each well with a HPD300 machine (nine three-fold dilutions typically starting at 30 µM final concentration) and incubated for 3 days. • 9.” left out

Nrf2 = target: T1, Nrf2 (Homo sapiens, UniProt Q16236); experiment: Nrf2 degradation in A549 HiBiT-Nrf2 cells, Nano-Glo HiBiT lytic detection (HiBiT readout); parameters: host or cells: A549 HiBiT-Nrf2 cells (engineered line bought from Promega)
T1 sequence (Q16236 1-605): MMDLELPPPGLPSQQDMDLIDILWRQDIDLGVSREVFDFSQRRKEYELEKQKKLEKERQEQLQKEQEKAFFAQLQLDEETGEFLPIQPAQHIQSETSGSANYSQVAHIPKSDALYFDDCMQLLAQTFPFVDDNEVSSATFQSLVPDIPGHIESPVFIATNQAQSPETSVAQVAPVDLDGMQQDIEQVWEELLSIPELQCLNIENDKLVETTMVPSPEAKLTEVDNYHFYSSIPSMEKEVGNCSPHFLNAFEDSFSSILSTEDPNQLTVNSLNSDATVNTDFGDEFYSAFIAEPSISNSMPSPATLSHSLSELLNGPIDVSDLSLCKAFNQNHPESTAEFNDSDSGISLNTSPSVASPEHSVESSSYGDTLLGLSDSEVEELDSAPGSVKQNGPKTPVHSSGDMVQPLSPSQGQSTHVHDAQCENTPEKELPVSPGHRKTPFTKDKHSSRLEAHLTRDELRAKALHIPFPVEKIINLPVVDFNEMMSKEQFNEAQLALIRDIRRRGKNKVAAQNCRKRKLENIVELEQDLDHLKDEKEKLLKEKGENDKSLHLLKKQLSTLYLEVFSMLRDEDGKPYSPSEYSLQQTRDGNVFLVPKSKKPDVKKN
Description: A549 HiBiT-Nrf2 cells (Promega, Cat. No. CS3023219) were seeded into 384-well plates at cell density of 5,000 cells/well in 40 μL of cell culture medium (Ham's F-12 Nutrient Mix supplemented with 10% FBS and 1% antibiotic-antimycotic).
The next day, cells were treated with representative Compounds of the Disclosure and incubated for 6 h and 20 h at 37° C., 5% CO2. Staurosporine was used as a control.
At the end of incubation Nrf2 degradation (HiBiT readout) and cell viability (CellTiter-Glo readout) were determined. For HiBiT readout, Nano-Glo HiBiT Reagent mix (Promega, Cat. No. N3050) was added to wells, plates were incubated 2 min on an orbital shaker and incubated at room temperature in the dark for additional 30 minutes. At the end of incubation luminescence was measured using ultrasensitive luminescence mode (Envision, Perkin Elmer).

[1] = 6 h, read-out: DC50 (nM) at 6 h
[2] = 20 h, read-out: DC50 (nM) at 20 h

| SMILES | IC50 (LK-2) [µM] | IC50 (A549) [µM] | DC50 (Nrf2; [1]) [nM] | DC50 (Nrf2; [2]) [nM] |
| --- | --- | --- | --- | --- |
| Cc1sc(NC(=O)Cc2cccc(OCCOCCNc3ccc4c(c3)C(=O)N(C3CCC(=O)NC3=O)C4=O)c2)nc1-c1ccc2c(c1)CCN2C(=O)c1cncn1C (stereo not drawn) [Cpd. No. 23, 2-(3-(2-(2-((2-(2,6-dioxopiperidin-3-yl)-1,3-dioxoisoindolin-5-yl)amino)ethoxy)ethoxy)phenyl)-N-(5-methyl-4-(1-(1-methyl-1H-imidazole-5-carbonyl)indolin-5-yl)thiazol-2-yl)acetamide] | 0.02 | 0.09 |  |  |
| Cc1ccccc1C(=O)N1CCc2cc(-c3nc(NC(=O)Cc4cccc(OCCCNc5cccc6c5C(=O)N(C5CCC(=O)NC5=O)C6=O)c4)sc3C)ccc21 (stereo not drawn) [Cpd. No. 6, 2-(3-(3-((2-(2,6-dioxopiperidin-3-yl)-1,3-dioxoisoindolin-4-yl)amino)propoxy)phenyl)-N-(5-methyl-4-(1-(2-methylbenzoyl)indolin-5-yl)thiazol-2-yl)acetamide] | > 30 | > 30 |  |  |
| Cc1ccccc1C(=O)N1CCc2cc(-c3nc(NC(=O)Cc4cccc(OCCCN5CCN(c6ccc7c(c6)C(=O)N(C6CCC(=O)NC6=O)C7=O)CC5)c4)sc3C)ccc21 (stereo not drawn) [compound 25, 2-(3-(3-(4-(2-(2,6-dioxopiperidin-3-yl)-1,3-dioxoisoindolin-5-yl)piperazin-1-yl)propoxy)phenyl)-N-(5-methyl-4-(1-(2-methylbenzoyl)indolin-5-yl)thiazol-2-yl)acetamide] | > 30 | > 30 |  |  |
| Cc1sc(C(=O)Nc2cccc(OCCOCCNc3ccc4c(c3)C(=O)N(C3CCC(=O)NC3=O)C4=O)c2)nc1-c1ccc2c(c1)CCN2C(=O)C1CC1 (stereo not drawn) [Cpd. No. 39, 4-(1-(cyclopropanecarbonyl)indolin-5-yl)-N-(3-(2-(2-((2-(2,6-dioxopiperidin-3-yl)-1,3-dioxoisoindolin-5-yl)amino)ethoxy)ethoxy)phenyl)-5-methylthiazole-2-carboxamide] | > 30 | > 30 |  |  |
| COc1ccncc1C(=O)N1CCc2cc(-c3nc(NC(=O)Cc4cccc(OCCOCCNc5cccc6c5C(=O)N(C5CCC(=O)NC5=O)C6=O)c4)sc3C)ccc21 (stereo not drawn) [Cpd. No. 80, 2-(3-(2-(2-((2-(2,6-dioxopiperidin-3-yl)-1,3-dioxoisoindolin-4-yl)amino)ethoxy)ethoxy)phenyl)-N-(4-(1-(4-methoxynicotinoyl)indolin-5-yl)-5-methylthiazol-2-yl)acetamide] |  | 0.075 | > 3000 |  |
| Cc1sc(NC(=O)Cc2cccc(OCCCCCCNc3cccc4c3C(=O)N(C3CCC(=O)NC3=O)C4=O)c2)nc1-c1ccc2c(c1)CCN2C(=O)C1CC1 (stereo not drawn) [Cpd. No. 66, N-(4-(1-(cyclopropanecarbonyl)indolin-5-yl)-5-methylthiazol-2-yl)-2-(3-((6-((2-(2,6-dioxopiperidin-3-yl)-1,3-dioxoisoindolin-4-yl)amino)hexyl)oxy)phenyl)acetamide] |  | 0.16 | 300 to 3000 | < 300 |
| Cc1ccncc1C(=O)N1CCc2cc(-c3nc(NC(=O)Cc4cccc(OCCOCCNc5cccc6c5C(=O)N(C5CCC(=O)NC5=O)C6=O)c4)sc3C)ccc21 (stereo not drawn) [Cpd. No. 78, 2-(3-(2-(2-((2-(2,6-dioxopiperidin-3-yl)-1,3-dioxoisoindolin-4-yl)amino)ethoxy)ethoxy)phenyl)-N-(5-methyl-4-(1-(4-methylnicotinoyl)indolin-5-yl)thiazol-2-yl)acetamide] |  | 0.0059 | > 3000 | < 300 |
| CC(=O)N1CCc2cc(-c3nc(NC(=O)Cc4cccc(OCCCCCNc5cccc6c5C(=O)N(C5CCC(=O)NC5=O)C6=O)c4)sc3C)ccc21 (stereo not drawn) [Cpd. No. 67, N-(4-(1-acetylindolin-5-yl)-5-methylthiazol-2-yl)-2-(3-((5-((2-(2,6-dioxopiperidin-3-yl)-1,3-dioxoisoindolin-4-yl)amino)pentyl)oxy)phenyl)acetamide] |  | 0.75 | < 300 | < 300 |
| Cc1sc(NC(=O)Cc2cccc(OCCCCCNc3cccc4c3CN(C3CCC(=O)NC3=O)C4=O)c2)nc1-c1ccc2c(c1)CCN2C(=O)C1CC1 (stereo not drawn) [Cpd. No. 69, N-(4-(1-(cyclopropanecarbonyl)indolin-5-yl)-5-methylthiazol-2-yl)-2-(3-((5-((2-(2,6-dioxopiperidin-3-yl)-1-oxoisoindolin-4-yl)amino)pentyl)oxy)phenyl)acetamide] |  | 0.18 | < 300 | < 300 |
| Cc1sc(NC(=O)Cc2cccc(OCCC3CCN(c4ccc5c(c4)C(=O)N(C4CCC(=O)NC4=O)C5=O)CC3)c2)nc1-c1ccc2c(c1)CCN2C(=O)C1CC1 (stereo not drawn) [Cpd. No. 68, N-(4-(1-(cyclopropanecarbonyl)indolin-5-yl)-5-methylthiazol-2-yl)-2-(3-(2-(1-(2-(2,6-dioxopiperidin-3-yl)-1,3-dioxoisoindolin-5-yl)piperidin-4-yl)ethoxy)phenyl)acetamide] |  | > 30 |  | < 300 |
| Cc1cnccc1C(=O)N1CCc2cc(-c3nc(NC(=O)Cc4cccc(OCCOCCNc5cccc6c5C(=O)N(C5CCC(=O)NC5=O)C6=O)c4)sc3C)ccc21 (stereo not drawn) [Cpd. No. 77, 2-(3-(2-(2-((2-(2,6-dioxopiperidin-3-yl)-1,3-dioxoisoindolin-4-yl)amino)ethoxy)ethoxy)phenyl)-N-(5-methyl-4-(1-(3-methylisonicotinoyl)indolin-5-yl)thiazol-2-yl)acetamide] |  | 0.0077 | > 3000 | < 300 |
| Cc1ncccc1C(=O)N1CCc2cc(-c3nc(NC(=O)Cc4cccc(OCCOCCNc5cccc6c5C(=O)N(C5CCC(=O)NC5=O)C6=O)c4)sc3C)ccc21 (stereo not drawn) [Cpd. No. 76, 2-(3-(2-(2-((2-(2,6-dioxopiperidin-3-yl)-1,3-dioxoisoindolin-4-yl)amino)ethoxy)ethoxy)phenyl)-N-(5-methyl-4-(1-(2-methylnicotinoyl)indolin-5-yl)thiazol-2-yl)acetamide] |  | 0.011 | > 3000 | < 300 |
